Measurements reported in PubChem BioAssay (NCI).
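These data come from cells grown in 96-well plates and exposed to compound for 48 hours at five concentrations. TGI marks complete inhibition of growth.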

Key:
Experiment in all cases: NCI anticancer screen, dose series, 48 h
SK-MEL-28 melanoma = tested on: SK-MEL-28 melanoma
U251 CNS = tested on: U251 CNS
SW-620 colon = tested on: SW-620 colon
OVCAR-3 ovarian = tested on: OVCAR-3 ovarian
COLO 205 colon = tested on: COLO 205 colon
HCT-15 colon = tested on: HCT-15 colon
CCRF-CEM leukemia = tested on: CCRF-CEM leukemia
SF-539 CNS = tested on: SF-539 CNS
HL-60(TB) leukemia = tested on: HL-60(TB) leukemia
SNB-78 CNS = tested on: SNB-78 CNS
MALME-3M melanoma = tested on: MALME-3M melanoma
LOX IMVI melanoma = tested on: LOX IMVI melanoma
RXF 393 renal = tested on: RXF 393 renal
EKVX NSCLC = tested on: EKVX NSCLC
SN12C renal = tested on: SN12C renal
MOLT-4 leukemia = tested on: MOLT-4 leukemia
SK-MEL-5 melanoma = tested on: SK-MEL-5 melanoma
M19-MEL melanoma = tested on: M19-MEL melanoma
DMS 273 small cell lung = tested on: DMS 273 small cell lung
XF 498 CNS = tested on: XF 498 CNS
RPMI-8226 leukemia = tested on: RPMI-8226 leukemia
SR leukemia = tested on: SR leukemia
NCI-H226 lung = tested on: NCI-H226 lung
SNB-19 CNS = tested on: SNB-19 CNS
KM20L2 colon = tested on: KM20L2 colon
KM12 colon = tested on: KM12 colon
UACC-257 melanoma = tested on: UACC-257 melanoma
LXFL 529 NSCLC = tested on: LXFL 529 NSCLC
CAKI-1 renal = tested on: CAKI-1 renal
HCC-2998 colon = tested on: HCC-2998 colon
A549 NSCLC = tested on: A549 NSCLC
OVCAR-8 ovarian = tested on: OVCAR-8 ovarian
M14 melanoma = tested on: M14 melanoma
UO-31 renal = tested on: UO-31 renal
HCT-116 colon = tested on: HCT-116 colon
TK-10 renal = tested on: TK-10 renal
SF-295 CNS = tested on: SF-295 CNS
786-0 renal = tested on: 786-0 renal
ACHN renal = tested on: ACHN renal
DLD-1 colon = tested on: DLD-1 colon
OVCAR-4 ovarian = tested on: OVCAR-4 ovarian
IGROV1 ovarian = tested on: IGROV1 ovarian
K-562 leukemia = tested on: K-562 leukemia
SK-OV-3 ovarian = tested on: SK-OV-3 ovarian
NCI-H23 lung = tested on: NCI-H23 lung
HOP-92 NSCLC = tested on: HOP-92 NSCLC
UACC-62 melanoma = tested on: UACC-62 melanoma
A498 renal = tested on: A498 renal
OVCAR-5 ovarian = tested on: OVCAR-5 ovarian
HT29 colon = tested on: HT29 colon
HOP-62 NSCLC = tested on: HOP-62 NSCLC
DMS 114 small cell lung = tested on: DMS 114 small cell lung
NCI-H460 lung = tested on: NCI-H460 lung
SF-268 CNS = tested on: SF-268 CNS
HOP-18 NSCLC = tested on: HOP-18 NSCLC
SNB-75 CNS = tested on: SNB-75 CNS
NCI-H522 lung = tested on: NCI-H522 lung
SK-MEL-2 melanoma = tested on: SK-MEL-2 melanoma

Measured: TGI

COC(=O)C1=Cc2cc3c(cc2[C@H](c2ccc4c(c2)OCO4)C1C(=O)OC)OCO3 (stereo partly specified)
> 100 µM: SK-MEL-28 melanoma | U251 CNS | SW-620 colon | OVCAR-3 ovarian | COLO 205 colon | HCT-15 colon | CCRF-CEM leukemia | SF-539 CNS | HL-60(TB) leukemia | SNB-78 CNS | MALME-3M melanoma | LOX IMVI melanoma | RXF 393 renal | EKVX NSCLC | SN12C renal | MOLT-4 leukemia | SK-MEL-5 melanoma | M19-MEL melanoma | DMS 273 small cell lung | XF 498 CNS | RPMI-8226 leukemia | SR leukemia | NCI-H226 lung | SNB-19 CNS | KM20L2 colon | KM12 colon | UACC-257 melanoma | LXFL 529 NSCLC | CAKI-1 renal | HCC-2998 colon | A549 NSCLC | OVCAR-8 ovarian | M14 melanoma | UO-31 renal | HCT-116 colon | TK-10 renal | SF-295 CNS | 786-0 renal | ACHN renal | DLD-1 colon | OVCAR-4 ovarian | IGROV1 ovarian | K-562 leukemia | SK-OV-3 ovarian | NCI-H23 lung | HOP-92 NSCLC | UACC-62 melanoma | OVCAR-5 ovarian | HT29 colon | HOP-62 NSCLC | DMS 114 small cell lung | NCI-H460 lung | SF-268 CNS | HOP-18 NSCLC | SNB-75 CNS
74 µM: A498 renal

O=C(c1ccccc1)c1nnn(Cc2cccc(Cl)c2)c1C(=O)c1ccccc1
38.8 µM: COLO 205 colon
> 100 µM: SK-MEL-28 melanoma | U251 CNS | SW-620 colon | OVCAR-3 ovarian | HCT-15 colon | CCRF-CEM leukemia | HL-60(TB) leukemia | SNB-78 CNS | MALME-3M melanoma | LOX IMVI melanoma | NCI-H522 lung | RXF 393 renal | EKVX NSCLC | MOLT-4 leukemia | SK-MEL-5 melanoma | M19-MEL melanoma | DMS 273 small cell lung | XF 498 CNS | RPMI-8226 leukemia | SR leukemia | NCI-H226 lung | SNB-19 CNS | KM20L2 colon | KM12 colon | UACC-257 melanoma | LXFL 529 NSCLC | CAKI-1 renal | HCC-2998 colon | A549 NSCLC | OVCAR-8 ovarian | M14 melanoma | UO-31 renal | HCT-116 colon | TK-10 renal | SF-295 CNS | SK-MEL-2 melanoma | 786-0 renal | ACHN renal | DLD-1 colon | OVCAR-4 ovarian | IGROV1 ovarian | K-562 leukemia | SK-OV-3 ovarian | NCI-H23 lung | HOP-92 NSCLC | UACC-62 melanoma | OVCAR-5 ovarian | HT29 colon | HOP-62 NSCLC | DMS 114 small cell lung | NCI-H460 lung | SF-268 CNS | HOP-18 NSCLC | SNB-75 CNS
